Data reported in patent US7598255B2 (Janssen Pharmaceutica NV, priority 2005, dated 2009).
Structures can show the parent of a compound that is named as a salt.

What was measured:
5-HT2B receptor = 5-HT2B receptor (Homo sapiens, UniProt P41595); assay: Affinity for 5HT2 receptor binding sites, h5-HT2B, [3H]mesulergine; settings: CHO h5-HT2B membranes
5-HT2A receptor = 5-HT2A receptor (Homo sapiens, UniProt P28223); assay: Affinity for 5-HT2A receptor binding sites, radioligand binding with [3H]ketanserin; settings: read-out: Ki 5-HT2A, rat cortex membranes (assay 2) or NIH3T3 h5-HT2A membranes (assay 3), table does not say which
Procedure: (§1) Sigmoidal inhibition curves were generated and fitted by nonlinear regression analysis (GraphPad Prism).
The affinity of the compounds for the rat 5-HT2A receptor was evaluated by competitive radioligand binding assay using [^3H]ketanserine as the radioligand. […] Brain tissue (rat cortex) was homogenized in 20 volumes per wet weight tissue of Tris-HCl buffer (50 mM, pH 7.4). The total membrane fraction was collected by centrifugation and washed by subsequent centrifugation runs (25 min at 25,000 g at 4° C.). Membranes were re-suspended in Tris-HCl buffer (50 mM, pH 7.4) containing 1 nM [^3H]ketanserin. Non-specific binding was estimated in the presence of 10 μM risperidone. The incubation was terminated by rapid filtration over Whatman GF/B filters pre-soaked in 0.1% polyethylenimine, and one washing step with 1 mL ice-cold Tris-HCl buffer, pH 7.4.

[1] = molecular target: T1, human recombinant 5-HT2C receptor (Homo sapiens, UniProt P28335); assay: Affinity for 5HT2 receptor binding sites, h5-HT2C, [3H]mesulergine; settings: CHO h5-HT2C membranes
T1 sequence (P28335 33-458): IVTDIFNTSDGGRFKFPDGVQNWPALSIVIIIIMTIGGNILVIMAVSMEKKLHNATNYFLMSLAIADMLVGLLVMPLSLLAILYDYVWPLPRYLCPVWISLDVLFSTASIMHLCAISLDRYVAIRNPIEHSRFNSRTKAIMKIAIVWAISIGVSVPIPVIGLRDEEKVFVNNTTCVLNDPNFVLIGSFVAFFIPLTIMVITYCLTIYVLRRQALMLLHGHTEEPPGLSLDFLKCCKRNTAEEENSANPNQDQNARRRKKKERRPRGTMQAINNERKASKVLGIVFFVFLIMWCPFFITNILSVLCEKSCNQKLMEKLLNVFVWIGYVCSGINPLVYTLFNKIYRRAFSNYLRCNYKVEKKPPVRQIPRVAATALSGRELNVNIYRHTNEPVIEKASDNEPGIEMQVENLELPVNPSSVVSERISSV
Procedure: as §1
Receptor binding was performed using the human recombinant 5-HT2A (GB: X57830), 5-HT2B (GB: Z36748) and 5-HT2C (GB: M81778) receptors. The affinity of the compounds for the 3 different human 5-HT2 receptor subtypes was evaluated by competitive radioligand binding assays using [^3H]ketanserin (h5-HT2A) or [^3H]mesulergine (h5-HT2B and h5-HT2C). The assays were performed on membranes prepared from NIH3T3 stably transfected with h5-HT2A or CHO stably transfected with h5-HT2B and h5-HT2C.

rat 5-HT7a receptor = rat 5-HT7a receptor (Rattus norvegicus, UniProt P32305); assay: Affinity for 5-HT7 receptor binding sites, radioligand binding with [3H]5-CT; settings: membranes of HEK-293 cells with rat 5-HT7a, 1 nM [3H]5-CT
Procedure: The affinity of the compounds described in this invention for the 5-HT7 receptor binding site was evaluated by single competition radioligand binding assay. The assay was performed on membranes prepared from HEK-293 cells that had been subjected to stable transfection with the rat 5-HT7a receptor (GB: NM022938). Cells were scraped from the culture plates, suspended in Tris-HCl 50 mM pH 7.5 and collected through centrifugation (1000 rpm for 5 min). The cell pellets were homogenized (Polytron, 15 s, setting 5) in 50 mM Tris-HCl (pH 7.5), 5 mM EDTA. Following centrifugation (15,000 rpm for 25 min), membranes (135 μg protein/mL) were resuspended in the same buffer and incubated for 60 min at RT with 1 nM [^3H]5-CT in the presence of increasing concentration of test compounds. Nonspecific binding was defined in the presence of 10 μM 5-HT. Incubation was stopped by rapid filtration using the cell harvester (Packard). Radioactivity was counted in a TopCount-NXT (Packard). Experiments were conducted in triplicate.

5-HT2B receptor, sequence (P41595 whole entry): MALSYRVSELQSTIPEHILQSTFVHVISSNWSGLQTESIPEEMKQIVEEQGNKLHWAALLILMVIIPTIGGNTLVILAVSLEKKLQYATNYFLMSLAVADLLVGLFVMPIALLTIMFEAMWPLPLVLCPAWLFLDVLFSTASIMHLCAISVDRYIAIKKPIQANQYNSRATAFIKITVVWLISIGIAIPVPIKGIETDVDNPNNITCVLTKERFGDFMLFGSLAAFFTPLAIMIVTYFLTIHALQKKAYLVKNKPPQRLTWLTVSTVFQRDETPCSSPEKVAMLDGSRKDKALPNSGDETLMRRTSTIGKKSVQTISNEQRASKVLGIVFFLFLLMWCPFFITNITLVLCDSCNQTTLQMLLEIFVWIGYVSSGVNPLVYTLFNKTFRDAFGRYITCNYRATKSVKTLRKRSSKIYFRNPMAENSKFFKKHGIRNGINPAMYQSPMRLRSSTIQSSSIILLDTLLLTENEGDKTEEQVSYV
rat 5-HT7a receptor, sequence (P32305 whole entry): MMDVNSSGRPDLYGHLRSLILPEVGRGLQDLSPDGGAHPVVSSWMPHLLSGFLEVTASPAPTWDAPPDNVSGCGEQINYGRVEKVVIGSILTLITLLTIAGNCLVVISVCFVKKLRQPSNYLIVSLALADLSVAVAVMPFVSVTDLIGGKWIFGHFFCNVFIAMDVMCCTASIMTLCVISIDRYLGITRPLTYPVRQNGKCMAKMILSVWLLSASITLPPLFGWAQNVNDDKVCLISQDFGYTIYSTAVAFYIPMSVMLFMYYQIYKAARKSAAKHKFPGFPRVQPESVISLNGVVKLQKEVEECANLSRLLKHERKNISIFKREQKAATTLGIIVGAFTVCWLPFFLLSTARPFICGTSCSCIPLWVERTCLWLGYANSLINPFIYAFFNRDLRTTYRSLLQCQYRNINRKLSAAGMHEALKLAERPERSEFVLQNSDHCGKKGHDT

| Compound | Ki (5-HT2B receptor) [µM] | Ki (5-HT2A receptor) [µM] | Ki [1] [µM] | Ki (rat 5-HT7a receptor) [µM] |
| --- | --- | --- | --- | --- |
| CC(C)c1nc2c(c(-c3ccsc3)n1)CCN(Cc1ccccc1)C2 [Example 87, 7-Benzyl-2-isopropyl-4-thiophen-3-yl-5,6,7,8-tetrahydro-pyrido[3,4-d]pyrimidine hydrochloride] | 2 | 0.6 | > 10 | > 10 |
| Cc1cc(-c2nc(C(C)C)nc3c2CCNC3)cs1 [Example 88, 2-Isopropyl-4-(5-methyl-thiophen-3-yl)-5,6,7,8-tetrahydro-pyrido[3,4-d]pyrimidine hydrochloride] | 0.06 | 0.013 | 0.185 | 0.55 |
| CC(C)c1nc2c(c(-c3ccsc3)n1)CCNC2 [Example 89, 2-Isopropyl-4-thiophen-3-yl-5,6,7,8-tetrahydro-pyrido[3,4-d]pyrimidine hydrochloride] | 0.04 | 0.025 | 1.4 | > 10 |
| Cc1cc(-c2nc(C(C)C)nc3c2CCN(C)C3)cs1 [Example 90, 2-Isopropyl-7-methyl-4-(5-methyl-thiophen-3-yl)-5,6,7,8-tetrahydro-pyrido[3,4-d]pyrimidine hydrochloride] | 0.13 | 0.017 | 1 | 2.3 |
| CC(C)c1nc2c(c(-c3ccsc3)n1)CCN(C)C2 [Example 91, 2-Isopropyl-7-methyl-4-thiophen-3-yl-5,6,7,8-tetrahydro-pyrido[3,4-d]pyrimidine hydrochloride] | 0.2 | 0.075 | 9 | > 10 |
| CC(C)c1nc(-c2ccc(F)cc2)c2c(n1)C(C)CN(Cc1ccccc1)C2 (stereo not drawn) [Example 92, 6-Benzyl-4-(4-fluoro-phenyl)-2-isopropyl-8-methyl-5,6,7,8-tetrahydro-pyrido[4,3-d]pyrimidine] | > 10 | 0.3 | > 10 | > 10 |
| CC(C)c1nc(-c2ccc(F)c(Cl)c2)c2c(n1)C(C)CN(Cc1ccccc1)C2 (stereo not drawn) [Example 93, 6-Benzyl-4-(3-chloro-4-fluoro-phenyl)-2-isopropyl-8-methyl-5,6,7,8-tetrahydro-pyrido[4,3-d]pyrimidine] | > 10 | > 10 | > 10 | > 10 |
| Cc1ccc(-c2nc(C(C)C)nc3c2CN(Cc2ccccc2)CC3C)cc1 (stereo not drawn) [Example 94, 6-Benzyl-2-isopropyl-8-methyl-4-p-tolyl-5,6,7,8-tetrahydro-pyrido[4,3-d]pyrimidine] | > 10 | > 10 | > 10 | > 10 |
| CC(C)c1nc(-c2ccccc2)c2c(n1)C(C)CN(Cc1ccccc1)C2 (stereo not drawn) [Example 95, 6-Benzyl-2-isopropyl-8-methyl-4-phenyl-5,6,7,8-tetrahydro-pyrido[4,3-d]pyrimidine] | > 10 | 2 | > 10 | > 10 |
| CC(C)c1nc(-c2ccc(C(F)(F)F)cc2)c2c(n1)C(C)CN(Cc1ccccc1)C2 (stereo not drawn) [Example 96, 6-Benzyl-2-isopropyl-8-methyl-4-(4-trifluoromethyl-phenyl)-5,6,7,8-tetrahydro-pyrido[4,3-d]pyrimidine] | > 10 | > 10 | > 10 | > 10 |
| CC(C)c1nc(-c2ccc(Cl)cc2)c2c(n1)C(C)CN(Cc1ccccc1)C2 (stereo not drawn) [Example 97, 6-Benzyl-4-(4-chloro-phenyl)-2-isopropyl-8-methyl-5,6,7,8-tetrahydro-pyrido[4,3-d]pyrimidine] | > 10 | > 10 | > 10 | > 10 |
| CC(C)c1nc(-c2ccsc2)c2c(n1)C(C)CN(Cc1ccccc1)C2 (stereo not drawn) [Example 98, 6-Benzyl-2-isopropyl-8-methyl-4-thiophen-3-yl-5,6,7,8-tetrahydro-pyrido[4,3-d]pyrimidine] | > 10 | > 10 | > 10 | > 10 |
